Experimental data reported in article PMC10488193, “Evaluation of the Chemical Stability, Membrane Permeability and Antiproliferative Activity of Cyclic Diarylheptanoids from European Hornbeam (Carpinus betulus L.)” (International Journal of Molecular Sciences, 2023).

How the values were obtained:
[1] = test system: A549 human lung adenocarcinoma cells; parameters: method as in PMID 28520428, PMID 28941682; details: cited from earlier work
[2] = test system: HeLa human cervical adenocarcinoma cells; parameters: method as in PMID 28520428, PMID 28941682; details: cited from earlier work
[3] = test system: A375 human melanoma cell line; parameters: method as in PMID 28208804; details: cited from earlier work
[4] = test system: SK-Mel-28 human melanoma cell line; parameters: method as in PMID 28208804; details: cited from earlier work
[5] = test system: lipid peroxidation in human plasma; parameters: method as in PMID 28520428; details: cited from earlier work
PAMPA-BBB = assay type: in vitro ADME; details: pH 7.4, read-out: logPe PAMPA-BBB (n = 9) (converted)
Method: A parallel artificial membrane permeability assay (PAMPA) was used to determine the effective permeability (Pe) for the Carpinus diarylheptanoids. Stock solutions of the isolated compounds (10 mM in DMSO) were diluted with the defined buffer (pH 7.4 for the PAMPA-BBB and pH 6.8 for the PAMPA-GI assays) to obtain the donor solutions (composition: 297.0 μL buffer + 3.0 μL stock solution). Donor solutions were filtered through Phenex-RC 15 mm, 0.2 μm syringe filters (Gen-Lab Ltd., Budapest, Hungary).
For the PAMPA-BBB test, 5 μL of porcine polar brain lipid extract (PBLE) solution (16.0 mg PBLE + 8.0 mg cholesterol dissolved in 600.0 μL n-dodecane) was applied for each well of the 96-well polycarbonate-based filter donor plates (top plate) (Multiscreen™-IP, MAIPN4510, pore size 0.45 μm; Merck). […]
After the incubation, the plates were separated and the compound concentrations in the donor (CD(t)) and acceptor (CA(t)) solutions were determined using the aforementioned UHPLC-DAD method (see Section 3.4). […]
All experiments were performed in three triplicates on three consecutive days (n = 9); caffeine standard was used as positive, while rutin was used as negative control. Clog P values were calculated using ACD/ChemSketch (Freeware) 2 January 2020 (Advanced Chemistry Development, Inc., Toronto, ON, Canada).

Row | Papp at 4 h, 100 µM (PAMPA-BBB) [×10⁻⁶ cm/s] | SMILES | IC50 [1] [µM] | IC50 [2] [µM] | cytotoxic concentration (not cytotoxic up to) [3] [µM] | cytotoxic concentration (not cytotoxic up to) [4] [µM] | lipid peroxidation induced by H2O2 (in words) [5]
1 | – | O=C1CCc2ccc(O)c(c2)-c2cc(ccc2O)C[C@H](O)[C@H](O)[C@H]1O [Compound 2, carpinontriol B] | > 100 | > 100 | > 1000 | > 1000 | inhibited lipid peroxidation
2 | 1.2 | O=C1CCc2ccc(O)c(c2)-c2cc(ccc2O)C[C@@H](O)[C@H](O)C1 [Compound 3, giffonin X] | – | – | – | – | –
